Assay results: patent publication US9505783B2, “Method of producing pyrone and pyridone derivatives” (priority 2009, dated 2016)
pIC50: −log10 of the molar value.

Assays:
influenza virus = experiment: CPE inhibitory effect confirming assay; format: cell-based; conditions: unidentified influenza virus, 72 h, read-out: CPE IC50
[1] = biological target: cap-dependent endonuclease (RNP fraction containing PB1•PB2•PA complex) (Influenza A virus, UniProt P15659); experiment: Measurement of cap-dependent endonuclease (CEN) inhibitory activity; format: biochemical; conditions: RNP enzyme from A/WSN/33 virus, capped Cy3/BHQ2-labelled 30mer RNA substrate, room temperature 60 minutes

SMILES: CN1C(=O)c2c(O)c(=O)c(C(=O)O)cn2C[C@H]1C(c1ccccc1)c1ccccc1 [Compound 43]
- pIC50 (influenza virus): 5.85
- pIC50 [1]: 7.11

SMILES: CCOC(=O)CCN1CN(C(c2ccccc2)c2ccccc2)n2ccc(=O)c(O)c2C1=O [Compound 128]
- pIC50 (influenza virus): 6.38
- pIC50 [1]: 7.20

SMILES: O=C(O)c1cn2c(c(O)c1=O)C(=O)N1CCCO[C@H]1[C@@H]2C(c1ccccc1)c1ccccc1 [Compound 175]
- pIC50 (influenza virus): 6.99
- pIC50 [1]: 6.88
